Test: recombinant UMI read abundance after kanamycin selection (control-corrected) (log10(CPM+1)); higher = more efficient recombination; extreme values may be limits of the assay; sequences stand for … in AGTGCAGAGAAAATCGGCCAGTTTTCTCTGCCTGCAGTCCGCATGCCGTGGGACCCCTTGGGTTCTAACCTGTTGCCTAGATTTATGCAGCGGACTGCCTTTCTCCCAAAGTGATAAACCGG…AGGTTGGTTTCACT; site = the 11-nt donor
In short: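 Reported values are log10(CPM+1) from a pooled Escherichia coli screen of donor and donor-binding-loop pairs for the IS621 bridge recombinase. Selection used IPTG (0.07 mM) plus kanamycin, against unselected plating, each in two replicates. Recombinant UMIs were amplified across the donor–target junction, sequenced, converted to CPM, averaged over replicates and scaled by control-derived factors.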
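Note: IS621 bridge recombinase in Escherichia coli cells against a fixed T5 target plasmid.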

Question: With “GTAAGAACATGGACCGGTTTTCCCGGTAATCCGTATTTGGC (site GTAAGAACTGC)” as the sequence, how does the “recombinant UMI read abundance (log10)” value read?
Answer: 2.33

Question: With “GTAAGAACATGGACCGGTTTTCCCGGTAATCCGTATTTGGC (site GTCAGAACTGC)” as the sequence, how does the “recombinant UMI read abundance (log10)” value read?
Answer: 0

Question: For “GTAAGAACATGGACCGGTTTTCCCGGTAATCCGTATTTGGC (site GTGAGAACTGC)”, which “recombinant UMI read abundance (log10)” value is on record?
Answer: 1.09

Question: For “GTAAGAACATGGACCGGTTTTCCCGGTAATCCGTATTTGGC (site GTTAGAACTGC)”, which “recombinant UMI read abundance (log10)” value is on record?
Answer: 1.13

Question: With “GTAAGCCCATGGACCGGTTTTCCCGGTAATCCGTATTTGTC (site GTAAGCCCTGA)” as the sequence, how does the “recombinant UMI read abundance (log10)” value read?
Answer: 1.98

Question: Which “recombinant UMI read abundance (log10)” value does the source give for “GTAAGCGCATGGACCGGTTTTCCCGGTAATCCGTATTTGGC (site GTAAGCGCTGC)” here?
Answer: 3.26

Question: With “GTAAGTACATGGACCGGTTTTCCCGGTAATCCGTATTTGGA (site GTAAGTACTTC)” as the sequence, how does the “recombinant UMI read abundance (log10)” value read?
Answer: 1.17

Question: With “GTAATAACATGGACCGGTTTTCCCGGTAATCCGTATTTGGC (site GTAATAACTGC)” as the sequence, how does the “recombinant UMI read abundance (log10)” value read?
Answer: 2.43

Question: For “GTAATACCATGGACCGGTTTTCCCGGTAATCCGTATTTGCA (site GTAATACCTTG)”, which “recombinant UMI read abundance (log10)” value is on record?
Answer: 0

Question: Which “recombinant UMI read abundance (log10)” value does the source give for “GTAATCGCATGGACCGGTTTTCCCGGTAATCCGTATTTGCG (site GTAATCGCTCG)” here?
Answer: 1.95

Question: Which “recombinant UMI read abundance (log10)” value does the source give for “GTAATCGCATGGACCGGTTTTCCCGGTAATCCGTATTTGCG (site GTACTCGCTCG)” here?
Answer: 0.0396

Question: Which “recombinant UMI read abundance (log10)” value does the source give for “GTAATCGCATGGACCGGTTTTCCCGGTAATCCGTATTTGCG (site GTAGTCGCTCG)” here?
Answer: 0.00978

Question: Which “recombinant UMI read abundance (log10)” value does the source give for “GTAATCGCATGGACCGGTTTTCCCGGTAATCCGTATTTGCG (site GTATTCGCTCG)” here?
Answer: 0.00488

Question: Which “recombinant UMI read abundance (log10)” value does the source give for “GTAATGGCATGGACCGGTTTTCCCGGTAATCCGTATTTGAA (site GTAATGGCTTT)” here?
Answer: 2.26

Question: Which “recombinant UMI read abundance (log10)” value does the source give for “GTAATTTCATGGACCGGTTTTCCCGGTAATCCGTATTTGCA (site GTAATTTCTTG)” here?
Answer: 1.4

Question: With “GTACACGCATGGACCGGTTTTCCCGGTAATCCGTATTTGCT (site GTACACGCTAG)” as the sequence, how does the “recombinant UMI read abundance (log10)” value read?
Answer: 2.16

Question: With “GTACATTCATGGACCGGTTTTCCCGGTAATCCGTATTTGAT (site GTACATTCTAT)” as the sequence, how does the “recombinant UMI read abundance (log10)” value read?
Answer: 2.04

Question: With “GTACGCCCATGGACCGGTTTTCCCGGTAATCCGTATTTGAT (site GTACGCCCTAT)” as the sequence, how does the “recombinant UMI read abundance (log10)” value read?
Answer: 0.747

Question: Which “recombinant UMI read abundance (log10)” value does the source give for “GTACGCCCATGGACCGGTTTTCCCGGTAATCCGTATTTGCA (site GTACGCCCTTG)” here?
Answer: 1.16

Question: For “GTACGCTCATGGACCGGTTTTCCCGGTAATCCGTATTTGAA (site GTACGCTCTTT)”, which “recombinant UMI read abundance (log10)” value is on record?
Answer: 2.11

Question: For “GTACTAACATGGACCGGTTTTCCCGGTAATCCGTATTTGGC (site GTACTAACTGC)”, which “recombinant UMI read abundance (log10)” value is on record?
Answer: 2.4

Question: For “GTACTACCATGGACCGGTTTTCCCGGTAATCCGTATTTGTG (site GTACTACCTCA)”, which “recombinant UMI read abundance (log10)” value is on record?
Answer: 0.00602

Question: With “GTACTCGCATGGACCGGTTTTCCCGGTAATCCGTATTTGTC (site GTACTCGCTGA)” as the sequence, how does the “recombinant UMI read abundance (log10)” value read?
Answer: 2.42

Question: With “GTAGATACATGGACCGGTTTTCCCGGTAATCCGTATTTGCC (site GTAGATACTGG)” as the sequence, how does the “recombinant UMI read abundance (log10)” value read?
Answer: 0

Question: With “GTAGCGACATGGACCGGTTTTCCCGGTAATCCGTATTTGAG (site GTAGCGACTCT)” as the sequence, how does the “recombinant UMI read abundance (log10)” value read?
Answer: 1.28

Question: Which “recombinant UMI read abundance (log10)” value does the source give for “GTAGGAACATGGACCGGTTTTCCCGGTAATCCGTATTTGAC (site GTAGGAACTGT)” here?
Answer: 2.59

Question: For “GTAGGAACATGGACCGGTTTTCCCGGTAATCCGTATTTGAC (site GTAGGCACTGT)”, which “recombinant UMI read abundance (log10)” value is on record?
Answer: 1.3

Question: Which “recombinant UMI read abundance (log10)” value does the source give for “GTAGGAACATGGACCGGTTTTCCCGGTAATCCGTATTTGAC (site GTAGGGACTGT)” here?
Answer: 2.24

Question: With “GTAGGAACATGGACCGGTTTTCCCGGTAATCCGTATTTGAC (site GTAGGTACTGT)” as the sequence, how does the “recombinant UMI read abundance (log10)” value read?
Answer: 1.56

Question: With “GTAGGCACATGGACCGGTTTTCCCGGTAATCCGTATTTGAC (site GTAGGAACTGT)” as the sequence, how does the “recombinant UMI read abundance (log10)” value read?
Answer: 1.1

Question: With “GTAGGCACATGGACCGGTTTTCCCGGTAATCCGTATTTGAC (site GTAGGCACTGT)” as the sequence, how does the “recombinant UMI read abundance (log10)” value read?
Answer: 2.05

Question: For “GTAGGCACATGGACCGGTTTTCCCGGTAATCCGTATTTGAC (site GTAGGGACTGT)”, which “recombinant UMI read abundance (log10)” value is on record?
Answer: 0

Question: For “GTAGGCACATGGACCGGTTTTCCCGGTAATCCGTATTTGAC (site GTAGGTACTGT)”, which “recombinant UMI read abundance (log10)” value is on record?
Answer: 0.00895

Question: With “GTAGGTACATGGACCGGTTTTCCCGGTAATCCGTATTTGAC (site ATAGGTACTGT)” as the sequence, how does the “recombinant UMI read abundance (log10)” value read?
Answer: 2.02

Question: With “GTAGGTACATGGACCGGTTTTCCCGGTAATCCGTATTTGAC (site CTAGGTACTGT)” as the sequence, how does the “recombinant UMI read abundance (log10)” value read?
Answer: 1.95

Question: For “GTAGGTACATGGACCGGTTTTCCCGGTAATCCGTATTTGAC (site GAAGGTACTGT)”, which “recombinant UMI read abundance (log10)” value is on record?
Answer: 0

Question: Which “recombinant UMI read abundance (log10)” value does the source give for “GTAGGTACATGGACCGGTTTTCCCGGTAATCCGTATTTGAC (site GCAGGTACTGT)” here?
Answer: 0.704

Question: Which “recombinant UMI read abundance (log10)” value does the source give for “GTAGGTACATGGACCGGTTTTCCCGGTAATCCGTATTTGAC (site GGAGGTACTGT)” here?
Answer: 0

Question: With “GTAGGTACATGGACCGGTTTTCCCGGTAATCCGTATTTGAC (site GTAAGTACTGT)” as the sequence, how does the “recombinant UMI read abundance (log10)” value read?
Answer: 1.98

Question: With “GTAGGTACATGGACCGGTTTTCCCGGTAATCCGTATTTGAC (site GTACGTACTGT)” as the sequence, how does the “recombinant UMI read abundance (log10)” value read?
Answer: 0.584

Question: With “GTAGGTACATGGACCGGTTTTCCCGGTAATCCGTATTTGAC (site GTAGATACTGT)” as the sequence, how does the “recombinant UMI read abundance (log10)” value read?
Answer: 1.54

Question: Which “recombinant UMI read abundance (log10)” value does the source give for “GTAGGTACATGGACCGGTTTTCCCGGTAATCCGTATTTGAC (site GTAGCTACTGT)” here?
Answer: 0.853

Question: For “GTAGGTACATGGACCGGTTTTCCCGGTAATCCGTATTTGAC (site GTAGGAACTGT)”, which “recombinant UMI read abundance (log10)” value is on record?
Answer: 1.59

Question: For “GTAGGTACATGGACCGGTTTTCCCGGTAATCCGTATTTGAC (site GTAGGCACTGT)”, which “recombinant UMI read abundance (log10)” value is on record?
Answer: 2.64

Question: For “GTAGGTACATGGACCGGTTTTCCCGGTAATCCGTATTTGAC (site GTAGGGACTGT)”, which “recombinant UMI read abundance (log10)” value is on record?
Answer: 1.8

Question: For “GTAGGTACATGGACCGGTTTTCCCGGTAATCCGTATTTGAC (site GTAGGTACTAT)”, which “recombinant UMI read abundance (log10)” value is on record?
Answer: 2.23

Question: For “GTAGGTACATGGACCGGTTTTCCCGGTAATCCGTATTTGAC (site GTAGGTACTCT)”, which “recombinant UMI read abundance (log10)” value is on record?
Answer: 0.304

Question: Which “recombinant UMI read abundance (log10)” value does the source give for “GTAGGTACATGGACCGGTTTTCCCGGTAATCCGTATTTGAC (site GTAGGTACTGA)” here?
Answer: 1.23

Question: Which “recombinant UMI read abundance (log10)” value does the source give for “GTAGGTACATGGACCGGTTTTCCCGGTAATCCGTATTTGAC (site GTAGGTACTGC)” here?
Answer: 1.5

Question: For “GTAGGTACATGGACCGGTTTTCCCGGTAATCCGTATTTGAC (site GTAGGTACTGG)”, which “recombinant UMI read abundance (log10)” value is on record?
Answer: 0.351

Question: With “GTAGGTACATGGACCGGTTTTCCCGGTAATCCGTATTTGAC (site GTAGGTACTGT)” as the sequence, how does the “recombinant UMI read abundance (log10)” value read?
Answer: 2.01

Question: For “GTAGGTACATGGACCGGTTTTCCCGGTAATCCGTATTTGAC (site GTAGGTACTTT)”, which “recombinant UMI read abundance (log10)” value is on record?
Answer: 0

Question: Which “recombinant UMI read abundance (log10)” value does the source give for “GTAGGTACATGGACCGGTTTTCCCGGTAATCCGTATTTGAC (site GTAGGTCCTGT)” here?
Answer: 0

Question: Which “recombinant UMI read abundance (log10)” value does the source give for “GTAGGTACATGGACCGGTTTTCCCGGTAATCCGTATTTGAC (site GTAGGTGCTGT)” here?
Answer: 2.02

Question: With “GTAGGTACATGGACCGGTTTTCCCGGTAATCCGTATTTGAC (site GTAGGTTCTGT)” as the sequence, how does the “recombinant UMI read abundance (log10)” value read?
Answer: 1.76

Question: With “GTAGGTACATGGACCGGTTTTCCCGGTAATCCGTATTTGAC (site GTAGTTACTGT)” as the sequence, how does the “recombinant UMI read abundance (log10)” value read?
Answer: 1.2

Question: With “GTAGGTACATGGACCGGTTTTCCCGGTAATCCGTATTTGAC (site GTATGTACTGT)” as the sequence, how does the “recombinant UMI read abundance (log10)” value read?
Answer: 0.986

From the supplement of paper PMC11208160
